Key:
[1] = tested on: hTeloC (DNA, i motif) CCCTAACCCTAACCCTAACCCT; assay: CD melting; conditions: Na+ (10 mM sodium phosphate); pH 5.7; 5 equivalents of compound, 10-15 μM DNA
[2] = tested on: mutTel24 (DNA, G4) TTGGGTTAGGGTTAGGGTTAGGGA; assay: CD melting; conditions: K+ (10 mM potassium phosphate); pH 5.7; 5 equivalents of compound, 10-15 μM DNA
[3] = tested on: hTeloCFID (DNA, i motif) TAACCCTAACCCTAACCCTAACCC; assay: fluorescent intercalator displacement; conditions: Na+ (10 mM NaH2PO4); pH 5.7; thiazole orange 2 μM displaced
[4] = tested on: mutTel24FID (DNA, G4) TTTGGGTTAGGGTTAGGGTTAGGGA; assay: fluorescent intercalator displacement; conditions: K+ (10 mM KH2PO4); pH 5.7; thiazole orange 2 μM displaced

SMILES	ΔT1/2 [1]	ΔT1/2 [2]	DC50 [3] [μM]	DC50 [4] [μM]
CN(C)c1ccc(Nc2c3ccc(NC(=O)CCN4CCCC4)cc3nc3cc(NC(=O)CCN4CCCC4)ccc23)cc1	-9.2 ± 0.5 °C	+8.9 ± 0.5 °C	0.87 ± 8.08E-04	0.50 ± 1.95E-03
Cc1cc2c3c([n+](C)c4ccc(F)cc4c3c1)-c1cc(F)ccc1N2C	-0.3 ± 0.5 °C	+20.6 ± 0.5 °C		
COc1ccc2cc3[n+](cc2c1OC)CCc1cc2c(cc1-3)OCO2	-0.8 ± 0.5 °C	+12.4 ± 0.5 °C	1.46 ± 5.88E-03	1.26 ± 7.22E-03
C[n+]1cc(NC(=O)c2ccc3ccc4ccc(C(=O)Nc5cc6ccccc6[n+](C)c5)nc4c3n2)cc2ccccc21	-6.8 ± 0.5 °C	+14.4 ± 0.5 °C	0.95 ± 3.79E-03	0.39 ± 1.42E-03

Next, values leading:

ΔT1/2 [1]	ΔT1/2 [2]	DC50 [3] [μM]	DC50 [4] [μM]	SMILES
-9.9 ± 0.5 °C	+4.5 ± 0.5 °C	1.34 ± 6.99E-03	0.95 ± 6.07E-03	O=C1c2c(O)ccc(O)c2C(=O)c2c(NCCNCCO)ccc(NCCNCCO)c21
+0.8 ± 0.5 °C	+8.8 ± 0.5 °C	18.02 ± 5.89E-02	9.42 ± 3.90E-02	NCCOc1cc(C(=O)Nc2cc(OCCN)c3ccccc3n2)nc(C(=O)Nc2cc(OCCN)c3ccccc3n2)c1

From paper PMC6066642 (2018)
